The values that follow come from US10259810B2, “N-sulfonylated pyrazolo[3,4-b]pyridin-6-carboxamides and method of use” (AbbVie S.à.r.l., priority 2015, dated 2019).

SMILES strings stand for the structures. pEC50: −log10 of the molar value.

Common to all, as to type: cell-based
Experiment [1] addresses T1, ΔF508-CFTR (Homo sapiens, UniProt P13569, DEL508-508).
T1 construct: host or cells: CFBE41o-, doxycycline-inducible
Description: CFTR cell surface levels using HRP-tagged ΔF508-CFTR expressing CFBE cells, in the presence of a co-corrector. The settings on record: HRP-tagged ΔF508-CFTR CFBE cells, in the presence of 3 μM co-corrector; for pEC50: read-out: EC50. The essentials:
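Chemiluminescent read-out of surface HRP (15 min, dark) after PBS washes. Activity is normalized as 100×(sample−DMSO)/(3 μM co-corrector alone−DMSO).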

Experiment [2] addresses T1, ΔF508-CFTR. In words: CFTR cell surface levels using HRP-tagged ΔF508-CFTR expressing CFBE cells, intrinsic corrector capacity. The note with it: HRP-tagged ΔF508-CFTR expressing CFBE41o- cells, compound alone (intrinsic corrector capacity), 20 hours at 33° C.; for pEC50: read-out: EC50. Set-up: % Activation: concentration or dose not given beside the values. In short, it runs like this: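 Surface ΔF508-CFTR was measured as HRP chemiluminescence from an extracellular-loop-4 tag, expressed as percent activity between DMSO and a […] corrector control.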

The target of a further experiment is T2, CFTR ΔF508 (Homo sapiens, UniProt P13569, DEL508-508).
T2 construct: bronchial epithelial cells isolated from CF patients homozygous for the CFTR ΔF508 mutation; McGill University; Asterand; University of North Carolina hAEC-CF; host or cells: primary human bronchial epithelial cells from CF patients homozygous for ΔF508, differentiated at air-liquid interface
In words: Chronic TECC assay, primary bronchial epithelial cells of CF patients homozygous for CFTR ΔF508 (corrector, co-corrector and potentiator). The note with it: chronic TECC, AUC = full area under the curve upon forskolin stimulation; for % Activity at 1 μM (AUC**): test compound at 1 μM; for EC50: read-out: EC50 (nM) (AUC**). In short, it runs like this:
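Primary bronchial epithelial cells from ΔF508-homozygous CF patients on collagen IV-coated Transwells were chronically treated with test compound plus corrector and potentiator, which were re-added before recording. Ieq was derived from PD and Rt in NaCl-Ringer, pH 7.4, at 37° C, with apical amiloride and bilateral forskolin, recorded every 2 min over 20 min. Ieq increase was normalized to controls, and EC50 was taken from per-well concentrations.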

T2 sequence (P13569 with tags, fused parts or gaps DEL508-508): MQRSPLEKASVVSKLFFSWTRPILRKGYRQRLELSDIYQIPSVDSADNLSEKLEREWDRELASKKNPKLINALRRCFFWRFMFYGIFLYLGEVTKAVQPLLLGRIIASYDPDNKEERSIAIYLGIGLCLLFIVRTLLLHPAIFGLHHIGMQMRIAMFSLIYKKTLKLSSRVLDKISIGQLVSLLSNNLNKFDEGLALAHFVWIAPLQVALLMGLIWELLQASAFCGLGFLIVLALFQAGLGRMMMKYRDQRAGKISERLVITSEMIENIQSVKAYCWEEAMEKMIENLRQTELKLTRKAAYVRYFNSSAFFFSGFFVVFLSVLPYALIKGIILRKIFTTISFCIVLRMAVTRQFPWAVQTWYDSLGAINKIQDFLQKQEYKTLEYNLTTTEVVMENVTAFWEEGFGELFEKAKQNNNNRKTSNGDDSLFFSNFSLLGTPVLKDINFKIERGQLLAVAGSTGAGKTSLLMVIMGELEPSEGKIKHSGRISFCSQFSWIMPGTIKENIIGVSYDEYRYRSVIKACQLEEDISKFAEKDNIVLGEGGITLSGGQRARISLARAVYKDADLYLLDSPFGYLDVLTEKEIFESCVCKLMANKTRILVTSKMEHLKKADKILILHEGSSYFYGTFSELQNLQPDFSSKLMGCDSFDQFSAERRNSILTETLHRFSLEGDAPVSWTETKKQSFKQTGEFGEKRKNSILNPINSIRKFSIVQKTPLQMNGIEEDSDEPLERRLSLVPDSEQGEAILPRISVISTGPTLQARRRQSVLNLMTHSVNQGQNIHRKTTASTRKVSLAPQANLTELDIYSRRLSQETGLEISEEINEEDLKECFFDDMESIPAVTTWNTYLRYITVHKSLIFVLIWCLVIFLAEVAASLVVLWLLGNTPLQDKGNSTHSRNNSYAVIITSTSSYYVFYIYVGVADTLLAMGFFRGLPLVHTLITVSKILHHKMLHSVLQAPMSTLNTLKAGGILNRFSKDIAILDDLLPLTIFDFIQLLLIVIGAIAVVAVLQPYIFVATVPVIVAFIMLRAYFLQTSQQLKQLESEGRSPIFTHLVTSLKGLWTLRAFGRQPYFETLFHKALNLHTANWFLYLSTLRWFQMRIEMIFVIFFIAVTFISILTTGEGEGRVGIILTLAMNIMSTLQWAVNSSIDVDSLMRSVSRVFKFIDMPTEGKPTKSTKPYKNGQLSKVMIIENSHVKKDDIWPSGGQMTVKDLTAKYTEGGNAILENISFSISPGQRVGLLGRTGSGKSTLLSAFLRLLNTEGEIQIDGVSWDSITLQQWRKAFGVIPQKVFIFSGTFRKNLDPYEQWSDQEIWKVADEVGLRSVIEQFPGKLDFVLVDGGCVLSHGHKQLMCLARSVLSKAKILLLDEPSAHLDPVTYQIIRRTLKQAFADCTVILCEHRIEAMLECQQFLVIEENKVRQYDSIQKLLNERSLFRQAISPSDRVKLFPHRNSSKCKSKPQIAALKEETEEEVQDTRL
T1 sequence (P13569 with tags, fused parts or gaps DEL508-508): as above

Consider `CC(C)Oc1nn(C2CCCCC2)c2nc(C(=O)NS(=O)(=O)N(C)C)cc(-c3ccc(CN4CCOCC4)cc3)c12` [Compound 406, 1-cyclohexyl-N-(dimethylsulfamoyl)-4-{4-[(morpholin-4-yl)methyl]phenyl}-3-[(propan-2-yl)oxy]-1H-pyrazolo[3,4-b]pyridine-6-carboxamide], for which the “% Activation” value on ΔF508-CFTR [1] is listed as 311.35%; on ΔF508-CFTR [2], 125.95%. Besides, the results for the pEC50 on ΔF508-CFTR [1] and at ΔF508-CFTR [2] were 6.74 and 6.62, respectively. Also, the “% Activity at 1 μM (AUC**)” value at CFTR ΔF508 stood at 235%.
Take `COCCS(=O)(=O)NC(=O)c1cc(N2CCC(N3CCOCC3)CC2)c2c(C3CCC3)nn(-c3ccc(F)cc3)c2n1` [Compound 407, 3-cyclobutyl-1-(4-fluorophenyl)-N-(2-methoxyethanesulfonyl)-4-[4-(morpholin-4-yl)piperidin-1-yl]-1H-pyrazolo[3,4-b]pyridine-6-carboxamide]: at ΔF508-CFTR [1], the “% Activation” value is on record as 494.15% and the pEC50 (in general, the negative decadic logarithm of the EC50, by convention in mol/L) was 6.91. Also, at ΔF508-CFTR [2], the “% Activation” value is 331.45% and the pEC50 was 6.30. In addition, on CFTR ΔF508, the EC50 (as a rule, the concentration at which the effect is half-maximal) came to 48.9 nM and the “% Activity at 1 μM (AUC**)” value was determined as 310%.
For `CN(C)S(=O)(=O)NC(=O)c1cc(N2CCC(CN3CCOCC3)CC2)c2c(C3CCC3)nn(-c3ccc(F)cc3)c2n1` [Compound 409, 3-cyclobutyl-N-(dimethylsulfamoyl)-1-(4-fluorophenyl)-4-{4-[(morpholin-4-yl)methyl]piperidin-1-yl}-1H-pyrazolo[3,4-b]pyridine-6-carboxamide], at ΔF508-CFTR [1], the “% Activation” value turned out to be 481.1% and the pEC50 was 6.97. In addition, at ΔF508-CFTR [2], the “% Activation” value is reported as 245.4% and the pEC50 is 6.81. At CFTR ΔF508, the EC50 is 150 nM and the “% Activity at 1 μM (AUC**)” value was determined as 420%.
In the case of `CS(=O)(=O)NC(=O)c1cc(N2CCC(CN3CCOCC3)CC2)c2c(C3CCC3)nn(-c3ccc(F)cc3)c2n1` [Compound 410, 3-cyclobutyl-1-(4-fluorophenyl)-N-(methanesulfonyl)-4-{4-[(morpholin-4-yl)methyl]piperidin-1-yl}-1H-pyrazolo[3,4-b]pyridine-6-carboxamide], on ΔF508-CFTR [1], the “% Activation” value is 529.58% and the pEC50 was 7.08. Besides, at ΔF508-CFTR [2], the “% Activation” value is recorded as 337.42% and the negative-log EC50 (pEC50) is 6.67. Further, at CFTR ΔF508, the EC50 turned out to be 1.58 nM and the “% Activity at 1 μM (AUC**)” value turned out to be 233.3333%.
In the case of `COCCS(=O)(=O)NC(=O)c1cc(N2CCC(CCN3CCOCC3)CC2)c2c(C3CCC3)nn(-c3ccc(F)cc3)c2n1` [Compound 415, 3-cyclobutyl-1-(4-fluorophenyl)-N-(2-methoxyethanesulfonyl)-4-{4-[2-(morpholin-4-yl)ethyl]piperidin-1-yl}-1H-pyrazolo[3,4-b]pyridine-6-carboxamide], on ΔF508-CFTR [1], the “% Activation” value is listed as 598% and the pEC50 is 7.16. Moreover, on ΔF508-CFTR [2], the “% Activation” value is 365.4% and the pEC50 is 6.78. For the same compound, on CFTR ΔF508, the EC50 was 28.4 nM and the “% Activity at 1 μM (AUC**)” value is given as 196.1812%.
Turning to `CN(C)S(=O)(=O)NC(=O)c1cc(N2CCC(CCN3CCOCC3)CC2)c2c(C3CCC3)nn(-c3ccc(F)cc3)c2n1` [Compound 416, 3-cyclobutyl-N-(dimethylsulfamoyl)-1-(4-fluorophenyl)-4-{4-[2-(morpholin-4-yl)ethyl]piperidin-1-yl}-1H-pyrazolo[3,4-b]pyridine-6-carboxamide], on ΔF508-CFTR [1], the “% Activation” value came out at 458.65% and the negative-log EC50 (pEC50) was 7.19. Further, on ΔF508-CFTR [2], the “% Activation” value turned out to be 288% and the pEC50 was 6.85. Also, at CFTR ΔF508, the EC50 amounted to 119 nM and the “% Activity at 1 μM (AUC**)” value is on record as 288.6036%.
On to `COCC1CCN(c2cc(C(=O)NS(=O)(=O)CC3COCCO3)nc3c2c(C2CCC2)nn3-c2ccccc2)CC1` (stereo not drawn) [Compound 417, 3-cyclobutyl-N-[(1,4-dioxan-2-yl)methanesulfonyl]-4-[4-(methoxymethyl)piperidin-1-yl]-1-phenyl-1H-pyrazolo[3,4-b]pyridine-6-carboxamide], for which, at ΔF508-CFTR [1], the “% Activation” value worked out at 539.75% and the pEC50 was 7.04. Further, on ΔF508-CFTR [2], the “% Activation” value turned out to be 307.45% and the pEC50 is 6.72. Moreover, the “% Activity at 1 μM (AUC**)” value at CFTR ΔF508 stood at 256.6667%.
On to `CS(=O)(=O)NC(=O)c1cc(N2CCC(N3CCOCC3)CC2)c2c(C3CCC3)nn(C3CCCCC3)c2n1` [Compound 418, 3-cyclobutyl-1-cyclohexyl-N-(methanesulfonyl)-4-[4-(morpholin-4-yl)piperidin-1-yl]-1H-pyrazolo[3,4-b]pyridine-6-carboxamide], for which, at ΔF508-CFTR [1], the “% Activation” value worked out at 512.9% and the negative-log EC50 (pEC50) was 6.66. Also, at ΔF508-CFTR [2], the “% Activation” value is on record as 321.3% and the pEC50 is 6.49. Also, at CFTR ΔF508, the half-maximal effective concentration (EC50) is 19.2 nM and the “% Activity at 1 μM (AUC**)” value came out at 196.6667%.
As for `CN(C)S(=O)(=O)NC(=O)c1cc(N2CCC(N3CCOCC3)CC2)c2c(C3CCC3)nn(C3CCCCC3)c2n1` [Compound 420, 3-cyclobutyl-1-cyclohexyl-N-(dimethylsulfamoyl)-4-[4-(morpholin-4-yl)piperidin-1-yl]-1H-pyrazolo[3,4-b]pyridine-6-carboxamide], the “% Activation” value on ΔF508-CFTR [1] is reported as 486.65%; at ΔF508-CFTR [2], 283.1%. Further, the figures for the pEC50 on ΔF508-CFTR [1] and at ΔF508-CFTR [2] were 6.68 and 6.33, respectively. On CFTR ΔF508, the “% Activity at 1 μM (AUC**)” value is 223.3333%.
With `CC(C)Oc1nn(C2CCCCC2)c2nc(C(=O)NS(C)(=O)=O)cc(-c3ccc(C(=O)N4CCN(C)CC4)cc3)c12` [Compound 422, 1-cyclohexyl-N-(methanesulfonyl)-4-[4-(4-methylpiperazine-1-carbonyl)phenyl]-3-[(propan-2-yl)oxy]-1H-pyrazolo[3,4-b]pyridine-6-carboxamide], on ΔF508-CFTR [1], the “% Activation” value stood at 434.33% and the negative logarithm of the EC50 (pEC50) was 6.69. Also, at ΔF508-CFTR [2], the “% Activation” value is reported as 222.8% and the pEC50 is 6.50. For the same compound, the “% Activity at 1 μM (AUC**)” value on CFTR ΔF508 is given as 320%.
Consider `CC(C)Oc1nn(C2CCCCC2)c2nc(C(=O)NS(=O)(=O)N(C)C)cc(-c3ccc(C(=O)N4CCN(C)CC4)cc3)c12` [Compound 423, 1-cyclohexyl-N-(dimethylsulfamoyl)-4-[4-(4-methylpiperazine-1-carbonyl)phenyl]-3-[(propan-2-yl)oxy]-1H-pyrazolo[3,4-b]pyridine-6-carboxamide], for which, on ΔF508-CFTR [1], the “% Activation” value amounted to 376.85% and the pEC50 was 6.96. Besides, on ΔF508-CFTR [2], the “% Activation” value was 175.55% and the negative-log EC50 (pEC50) was 6.85. At CFTR ΔF508, the EC50 came to 39.8 nM and the “% Activity at 1 μM (AUC**)” value was determined as 365%.
`CN(C)S(=O)(=O)NC(=O)c1cc(N2CCC(CN3CCOCC3)CC2)c2c(C3CCC3)nn(C3CCCCC3)c2n1` [Compound 424, 3-cyclobutyl-1-cyclohexyl-N-(dimethylsulfamoyl)-4-{4-[(morpholin-4-yl)methyl]piperidin-1-yl}-1H-pyrazolo[3,4-b]pyridine-6-carboxamide]: at ΔF508-CFTR [1], the “% Activation” value came to 453.88% and the pEC50 was 7.04. Further, at ΔF508-CFTR [2], the “% Activation” value was 249.25% and the pEC50 is 6.61. In addition, the “% Activity at 3 μM (AUC**)” value on CFTR ΔF508 (test compound at 3 μM) amounted to 462.0976%.
As to `O=C(NS(=O)(=O)C1CCOC1)c1cc(N2CCC(N3CCOCC3)CC2)c2c(C3CCC3)nn(-c3ccc(F)cc3)c2n1` (stereo not drawn) [Compound 429, 3-cyclobutyl-1-(4-fluorophenyl)-4-[4-(morpholin-4-yl)piperidin-1-yl]-N-(oxolane-3-sulfonyl)-1H-pyrazolo[3,4-b]pyridine-6-carboxamide], on ΔF508-CFTR [1], the “% Activation” value was 422.8% and the pEC50 is 6.69. For the same compound, on ΔF508-CFTR [2], the “% Activation” value is 252.1% and the negative logarithm of the EC50 (pEC50) is 6.42. Further, on CFTR ΔF508, the EC50 is 83.8 nM and the “% Activity at 1 μM (AUC**)” value was 180%.
As for `CS(=O)(=O)NC(=O)c1cc(N2CCC(CCN3CCOCC3)CC2)c2c(C3CCC3)nn(-c3ccc(F)cc3)c2n1` [Compound 431, 3-cyclobutyl-1-(4-fluorophenyl)-N-(methanesulfonyl)-4-{4-[2-(morpholin-4-yl)ethyl]piperidin-1-yl}-1H-pyrazolo[3,4-b]pyridine-6-carboxamide], on ΔF508-CFTR [1], the “% Activation” value came to 568.8% and the pEC50 was 7.33. At ΔF508-CFTR [2], the “% Activation” value was 344.95% and the negative logarithm of the EC50 (pEC50) was 6.96. For the same compound, on CFTR ΔF508, the “% Activity at 1 μM (AUC**)” value is 280%.
On to `CC(C1CCN(c2cc(C(=O)NS(=O)(=O)N(C)C)nc3c2c(C2CCC2)nn3-c2ccc(F)cc2)CC1)N1CCOCC1` (stereo not drawn) [Compound 440, 3-cyclobutyl-N-(dimethylsulfamoyl)-1-(4-fluorophenyl)-4-{4-[1-(morpholin-4-yl)ethyl]piperidin-1-yl}-1H-pyrazolo[3,4-b]pyridine-6-carboxamide], for which, at ΔF508-CFTR [1], the “% Activation” value is given as 543.55% and the pEC50 was 7.26. On ΔF508-CFTR [2], the “% Activation” value stood at 334.8% and the pEC50 is 6.89. For the same compound, on CFTR ΔF508, the EC50 came out at 2.98 nM and the “% Activity at 1 μM (AUC**)” value stood at 696.6667%.
